How the values were obtained:
Format in all cases: cell-based
[1] = test system: mouse mammary tumor virus (MMTV) promoter; conditions: for MMTV fold induction relative to solvent control: Table 2 A) transcriptional activators; for effect of steroids on luciferase expression in the MMTV reporter cell line M10: FIG. 43
From the text: NIH/3T3 fibroblast cells (ATCC number CRL 1658) were used for transfection of plasmids containing the mouse mammary tumor virus (MMTV) promoter linked to firefly luciferase coding sequences (see below). Cells were propagated in Dulbecco's modified Eagle's medium (DMEM) obtained from Gibco, Grand Island, N.Y. and supplemented with 10% FCS. For high-throughput (HTP) screening, transfected NIH/3T3 clones were transferred to serum free defined medium consisting of Iscove's modified Eagle's medium (IMEM) and Ham's F12 medium (1:1) supplemented with growth factors, hormones and nutrients as described previously (43).
The firefly luciferase gene was removed from the plant expression plasmid pDO432 (33) (FIG. 1) as a 1.9 kb BamHI fragment and cloned into the BamHI site of pSVL (Pharmacia, Piscataway, N.J.), a mammalian expression vector containing the SV40 promoter. The resulting plasmid (pSVLuci; FIG. 2) was digested with XhoI and SalI to produce a 2.4 kb fragment containing the luciferase coding sequences and the SV40 late polyadenylation site. This fragment was inserted into the XhoI site of pMSG (Pharmacia, Piscataway, N.J.), a eukaryotic expression vector containing the MMTV promoter. The resulting MMTV promoter-luciferase fusion plasmid (pMLuci; FIG. 3) was used to transfect NIH/3T3 cells as described below (section E1). Similar constructs can be made using luciferase vectors from Clontech (Palo Alto, Calif.).
pMluci (FIG. 3) and pSV2Neo, an antibiotic resistance plasmid (34), were co-transfected into NIH/3T3 mouse fibroblast cells using the calcium phosphate precipitation method (15) with a commercially available kit (Pharmacia, Piscataway N.J.). Two days later, cells were transferred to media containing 0.4 mg/ml G418 and were grown for an additional 10-14 days. G418-resistant clones were isolated by standard methods. Once sufficient cell numbers were obtained, clones were analyzed based on several criteria: constitutive luciferase production, induction of luciferase expression by dexamethasone (1 μm, Sigma, St. Louis, Mo.), satisfactory attachment to microtiter plates used in the high-throughput screen (see Section G) and acceptable standard deviation in multiple luciferase expression assays (see below for assay protocol). This analysis was carried out using the luciferase assay conditions described in sections F and G. Of the clones which satisfied the above criteria for the high throuphput screen, one clone, M10, was selected for use.
(§1) Cell plating: Dynatech Microlite 96 well plates were custom pretreated for cell attachment by Dynatech Laboratories, Inc. (Chantilly, Va.). Alternatively, the 96 well plates were treated with 50 µl per well of human fibronectin (hFN, 15 µg/ml in PBS, Collaborative Research, Bedford, Mass.) overnight at 37 C. hFN-treated plates were washed with PBS using an Ultrawash 2 Microplate Washer (Dynatech Labs), to remove excess hFN prior to cell plating. M10, 532, and G21 cells maintained in their respective serum media (with 0.2 mg/ml G418) were washed with PBS, harvested by trypsinization, and counted using a hemocytometer and the Trypan Blue exclusion method according to protocols provided by Sigma, St. Louis, Mo. Chemical Company. Cells were then diluted into serum free defined media (with 0.2 mg/ml G418), and 0.2 ml of cell suspension per well was plated onto Dynatech treated plates (532 and G21) or hFN-treated plates (M10) using a Cetus Pro/Pette (Cetus, Emeryville Calif.). Plates were incubated overnight at 37 C in a humidified 5% CO2 atmosphere.
(§2) Addition of Chemicals to Cells: Chemicals from the Oncogene Science file were dissolved in DMSO at concentrations of 3-30 mg/ml. A liquid handling laboratory work station (RSP 5052, Tecan U.S. Chapel Hill, N.C.) was used to dilute the chemicals (three dilutions; 5 fold, 110 fold, and 726 fold). 10 11 of each dilution were added to each of quadruplicate samples of cells contained in the wells of 96-well Dyantech Microlite Plates. […]

human G-CSF promoter = conditions: for GCSF fold induction relative to solvent control: Table 2 A) transcriptional activators; for GCSF fold induction relative to solvent control / GCSF fold inhibition relative to solvent control: G21 cells, 6 hours, high-throughput screen; for GCSF fold inhibition relative to solvent control: Table 2 B) transcriptional inhibitors
From the text: A human bladder carcinoma cell line (U5637, ATCC number HTB 9) was used for transfection of plasmids containing the human Granulocyte-Colony Stimulating Factor (G-CSF) promoter (see below) and was maintained in RPMI medium supplemented with 10% FCS. For HTP screening, transfected 5637 clones were transferred to a serum free defined medium identical to that used for the NIH/3T3 clones.
The sequences of OL-1, OL-2 and OL-5 recognize the G-CSF promoter region, OL-4 recognizes the first intron/exon junction and OL-3 recognizes sequences within the second exon (32). One of the clones isolated from the leukocyte library using these oligonucleotide probes contains a 3.5 kb SalI-BamHI fragment of G-CSF genomic sequence consisting of 3.3 kb of promoter sequence and two hundred base pairs of the coding region. This fragment was inserted into the vector pGEM-7-Zf (Promega, Madison, Wis.) which had previously been digested with SalI/BamHI, resulting in the vector pJM710 (FIG. 7). pJM710 was then digested with PstI, and the resulting 1.6 kb fragment containing G-CSF upstream sequences and the first 15 bases of the G-CSF leader sequence was inserted into the PstI site of pGEM5-Luci (FIG. 8) to generate pG-Lucl (FIG. 9). This construct was then used for transfection of 5637 human bladder carcinoma cells as described below in section E3. pGEM5-Luci (FIG. 8) had previously been constructed by inserting the […]/SalI fragment from pSVLuci (FIG. 2) containing the luciferase coding sequence and the SV40 late polyadenylation signal into pGEM 5-Zf (Promega, Madison Wis.) digested with XhoI/SalI.
pG-LUC1 (FIG. 9) and pRSVNeo were co-transfected into 5637 human bladder carcinoma cells as described above. Selection of G418 resistant clones was as described above except for using a concentration of 0.1 mg/ml G418. Analysis of cell clones was performed as above except that a known inducer of G-CSF expression (1-5 µg/ml lipopolysaccharide (LPS), E. coli serotype 055:b5, Difco, Detroit, Mich. or Sigma, St. Louis, Mo.) was used in place of dexamethasone.
as §1, §2

[2] = test system: human growth hormone promoter; conditions: for hGH fold induction relative to solvent control: Table 2 A) transcriptional activators
From the text: A rat pituitary cell line, designated GC, (4, 25) was used for transfection of plasmids containing the human growth hormone promoter (see below) and was maintained in DMEM and Ham's F12 medium (1:1), supplemented with 12.5% FCS. For HTP screening, transfected GC clones were transferred to serum free defined medium consisting of DMEM and Ham's F12 medium (1:1) supplemented with growth factors, hormones and nutrients as described previously (17, 5).
The SalI-XhoI fragment of pSVLuci (FIG. 2) containing the luciferase coding sequences and the SV40 late polyadenylation site was inserted into pUC 8 (Biorad, Richmond, Calif.), which has been linearized by a SmaI/HinCII digestion and ligated to XhoI linkers (New England Biolabs, Beverly, Mass.). The new plasmid thus generated (pUXLuci; FIG. 4) was linearized by XhoI digestion followed by incubation with the Klenow fragment of E. coli DNA polymerase and the four deoxyribonucleotides to fill in the single-stranded ends of the vector. This linear (5.1 KB) form of pUXLuci was then ligated to the filled-in 550 bP HindIII-XbaI fragment of the plasmid phGH:CAT (FIG. 5) (25). Human growth hormone promoter sequences located on the HindIII-XbaI fragment were thus fused to the luciferase coding sequences located on pUXLuci generating the plasmid phGH-Luci (FIG. 6), which was used in transfections of GC cells as described below (Section E2).
phGH-LUCI (FIG. 6) and pRSVNeo, an antibiotic resistance plasmid (14), were co-transfected into GC rat pituitary cells as described above. Selection of G418-resistant cell clones was described above except for using a concentration of 0.2 mg/ml G418. Analysis of the cell clones was performed as above, except that known inducers of hGH expression (10-100 nM rat growth hormone releasing factor (rGRF, Bachem, Torrance, Calif.) and 10 μm forskolin (Sigma, St. Louis, Mo.) were used in place of dexamethasone. One clone, 532, was selected for further use in the high throughput screen.
as §1
Addition of Chemicals to Cells: Chemicals from the Oncogene Science file were dissolved in DMSO at concentrations of 3-30 mg/ml. A liquid handling laboratory work station (RSP 5052, Tecan U.S. Chapel Hill, N.C.) was used to dilute the chemicals (three dilutions; 5 fold, 110 fold, and 726 fold). 10 11 of each dilution were added to each of quadruplicate samples of cells contained in the wells of 96-well Dyantech Microlite Plates. Cell plates were then shaken on a microplate shaker (Dyantech, medium setting, 30 sec.) and incubated for 6 hours at 37 C, 5% CO2.
Bioluminescence Assay: After incubation with OSI-file chemicals, cell plates were washed 3 times with PBS using an Ultrawash 2 Microplate Washer (Dyantech Labs) and 75 µl of Lysis Buffer 2 were added to each well (Lysis Buffer 2 is the same as Lysis buffer 1 exept that the ATP and DTT concentrations were changed to 2.67 mM and 133 mM, respectively). […]

[3] = M10 cells, 6 hours, high-throughput screen
[4] = 532 cells, 6 hours, high-throughput screen

Row | Compound | MMTV fold induction relative to solvent control [1, 3] [fold] | GCSF fold induction relative to solvent control (human G-CSF promoter) [fold] | hGH fold induction relative to solvent control [2, 4] [fold] | other results
1 | CC1(C(=O)OCC(F)(F)C(F)(F)C(F)(F)C(F)(F)C(F)(F)C(F)F)CCC(C(=O)OCC(F)(F)C(F)(F)C(F)(F)C(F)(F)C(F)(F)C(F)F)C1(C)C (stereo not shown) [Chemical 1592] | 1.34 | 3.20 | 0.74 | –
2 | lipopolysaccharide [reference compound] | – | – | – | stimulation of clone G21 by known inducer (human G-CSF promoter; 5 µg/ml lipopolysaccharide): 5.7 fold
3 | O=C(OC(C(=O)O)C(OC(=O)c1ccccc1)C(=O)O)c1ccccc1 (stereo not shown) [Chemical 578] | – | – | – | MMTV fold inhibition relative to solvent control ([1]; Table 2 B) transcriptional inhibitors, M10 cells, 6 hours, high-throughput screen): 0.91 fold; GCSF fold inhibition relative to solvent control (human G-CSF promoter): 0.65 fold; hGH fold inhibition relative to solvent control ([2]; Table 2 B) transcriptional inhibitors, 532 cells, 6 hours, high-throughput screen): 4.00 fold
4 | C1CCNCC1 [Chemical 759] | – | – | – | GCSF fold inhibition relative to solvent control (human G-CSF promoter): 0.64 fold
5 | rat growth hormone releasing factor: rat growth hormone releasing factor (rGRF, Bachem), known inducer of hGH expression (HADAIFTSSYRRILGQLYARKLLHEIMNRQQGERNQEQRSRFN; Somatoliberin; UniProt P09916 31-73, looked up) [reference compound] | – | – | – | stimulation of clone 532 by known inducer ([2]; 100 nM rat growth hormone releasing factor): 2.2 fold
6 | Cc1cc(=O)oc2c(CN(CC(=O)O)CC(=O)O)c(O)ccc12 [Chemical 1712] | – | – | – | GCSF fold inhibition relative to solvent control (human G-CSF promoter): 0.64 fold
7 | CC(CCl)CBr (single isomer, unassigned) [Chemical 2096] | 0.89 | 3.27 | 0.61 | –
8 | O=c1[nH]c(=O)n(C2CC(O)C(CO)O2)cc1Br (stereo not shown) [Chemical 543] | 0.98 | 7.17 | 0.72 | –
9 | Cc1cc(-c2ccc(S(=O)(=O)[O-])cc2)c2ccc3c(-c4ccc(S(=O)(=O)[O-])cc4)cc(C)nc3c2n1.O.[Na+].[Na+] [Chemical 189] | 2.80 | 1.06 | 1.47 | –
10 | Nc1ccc2nc3ccc(N)cc3[s+]c2c1 [Chemical 836] | 0.58 | 3.20 | 0.23 | –
11 | C[C@@H]1C[C@H]2[C@@H]3CCC4=CC(=O)C=C[C@]4(C)[C@@]3(F)[C@@H](O)C[C@]2(C)[C@@]1(O)C(=O)CO [dexamethasone, reference compound] | – | – | – | stimulation of clone M10 by known inducer ([1]; 1 μm dexamethasone): 11.6 fold
12 | C[C@]12CCC(=O)C=C1CC[C@@H]1[C@@H]2[C@@H](O)C[C@]2(C=O)[C@@H](C(=O)CO)CC[C@@H]12 [aldosterone, reference compound] | – | – | – | effect of steroids on luciferase expression in the MMTV reporter cell line M10 [1]: stimulates clone M10
13 | CC(=O)[C@H]1CC[C@H]2[C@@H]3CCC4=CC(=O)CC[C@]4(C)[C@H]3CC[C@]12C [progesterone, reference compound] | – | – | – | effect of steroids on luciferase expression in the MMTV reporter cell line M10 [1]: did not
14 | CC1(C)OC2CC3C4CCC5=CC(=O)C=CC5(C)C4(F)C(O)CC3(C)C2(C(=O)CO)O1 (stereo not shown) [Chemical 848] | 2.43 | 0.75 | 1.28 | –
15 | CC(=O)[O-].Nc1ccc2nc3c(cc(N)c4ccccc43)[o+]c2c1 [Chemical 1776] | 1.36 | 3.50 | 0.15 | –

From patent US6376175B1, “Methods of discovering chemicals capable of functioning as gene expression modulators” (OSI Pharmaceuticals, Inc., priority 1989, dated 2002)
